Reference: US8486996B2, “Aroylfuranes and aroylthiophenes” (Basilea Pharmaceutica AG, priority 2006, dated 2013)
Where two headings read alike, the source gives them in different places.

Experiments:
[1] = Hoechst 33342 nuclear staining (48 h read-out); assay type: cell-based
Procedure, shortened: (§1)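 Adherent cells pre-spread 24 h before dosing, suspension cells dosed at seeding; compounds at 0.001 μM-10 μM final, 48 h at culture conditions. Hoechst 33342 (2-5 μg/ml) added for 30 min, then fluorescence microscopy scoring of apoptotic nuclear fraction and apoptosis-specific morphology, reported as scores A-D.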

tumor cells [2] = experiment: Hoechst 33342 nuclear staining (48 h read-out); assay type: cell-based
Procedure, shortened: as §1

[3] = MTS proliferation assay (72 h read-out); assay type: cell-based; conditions: MRC5 cells
Procedure, shortened: (§2)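 Viability was read by MTS absorbance at 492 nm after 3 h with reagent. Before that, cells plated a day earlier at 1.5×10^3–10^4 per well had been incubated with test compound at final concentrations of 0.001–10 μM for 72 h; activity is given as category scores A–D.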

tumor cells [4] = experiment: MTS proliferation assay (72 h read-out); assay type: cell-based
Procedure, shortened: as §2

[5] = Mitochondrial membrane potential, JC-1 (read-out 48 h); assay type: cell-based; conditions: PBL, JC-1, 48 h
Procedure, shortened: (§3)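 Tumor cells were treated with test compounds (adherent cells after 24 h of attachment, suspension cells immediately), medium holding up to 5% DMSO. After 48 h, JC-1 (2-5 μg/ml in added medium) was applied for 30 min. Fluorescence microscopy (FITC/TRITC filters) scored the fraction of cells with dissipated mitochondrial membrane potential as categories A-D.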

tumor cells [6] = experiment: as above; assay type: cell-based; conditions: JC-1, 48 h
Procedure, shortened: as §3

HeLa = experiment: Colony Forming Units (read-out 6 days), HeLa; assay type: cell-based, human; conditions: colonies containing more than 30 cells, read-out: Colony Forming Units, score based on IC50, HeLa
Experimental: (§4) Appropriate numbers of cells (100-150 cells, dependent on the cell type) are being seeded out in 1 ml complete medium into 6-well plates and allowed to attach for 48 h. The compounds are added after 48 h in 500 μl solution. The concentrations are in the range of 0.001 μM-3 μM. Control plates receive the same volume of medium containing the appropriate amount of DMSO. The plates are incubated for 5-7 days at cell culture conditions and subsequently scored for growth of colonies (containing more than 30 cells) by using a microscope.

H460 = experiment: Colony Forming Units (read-out 6 days), H460; assay type: cell-based, human; conditions: colonies containing more than 30 cells, read-out: Colony Forming Units, score based on IC50, H460
Experimental: as §4

[7] = MRC5 cells, read-out: Hoechst 33342 nuclear staining EC50, MRC5
[8] = PBL, read-out: Hoechst 33342 nuclear staining EC50, PBL
[9] = HeLa cells, read-out: Hoechst 33342 nuclear staining EC50, HeLa
[10] = Jily cells, read-out: Hoechst 33342 nuclear staining EC50, Jily
[11] = Jurkat cells, read-out: Hoechst 33342 nuclear staining EC50, Jurkat
[12] = HT1080 cells, read-out: MTS proliferation assay IC50, HT1080
[13] = HeLa cells, read-out: MTS proliferation assay IC50, HeLa
[14] = Jily cells, read-out: MTS proliferation assay IC50, Jily
[15] = Jurkat cells, read-out: MTS proliferation assay IC50, Jurkat
[16] = HeLa cells, read-out: Mitochondrial membrane potential (read-out 48 h) HeLa
[17] = Jily cells, read-out: Mitochondrial membrane potential (read-out 48 h) Jily
[18] = Jurkat cells, read-out: Mitochondrial membrane potential (read-out 48 h) Jurkat
[19] = MCF7 cells, read-out: Mitochondrial membrane potential (read-out 48 h) MCF7
[20] = Homo sapiens, MRC5 cells, read-out: Hoechst 33342 nuclear staining EC50, MRC5
[21] = Homo sapiens, HeLa cells, read-out: Hoechst 33342 nuclear staining EC50, HeLa
[22] = Homo sapiens, Jurkat cells, read-out: Hoechst 33342 nuclear staining EC50, Jurkat
[23] = Homo sapiens, HT-1080, HT1080 cells, read-out: MTS proliferation assay IC50, HT1080
[24] = Homo sapiens, HeLa cells, read-out: MTS proliferation assay IC50, HeLa
[25] = Homo sapiens, Jurkat cells, read-out: MTS proliferation assay IC50, Jurkat
[26] = Homo sapiens, HeLa cells, read-out: Mitochondrial membrane potential (read-out 48 h) HeLa
[27] = Homo sapiens, Jurkat cells, read-out: Mitochondrial membrane potential (read-out 48 h) Jurkat
[28] = Homo sapiens, MCF7 cells, read-out: Mitochondrial membrane potential (read-out 48 h) MCF7

Compound	EC50 [1, 7] [µM]	EC50 [1, 8] [µM]	EC50 (tumor cells [2]; [9]) [µM]	EC50 (tumor cells [2]; [10]) [µM]	EC50 (tumor cells [2]; [11]) [µM]	IC50 [3] [µM]	IC50 (tumor cells [4]; [12]) [µM]	IC50 (tumor cells [4]; [13]) [µM]	IC50 (tumor cells [4]; [14]) [µM]	IC50 (tumor cells [4]; [15]) [µM]	EC50 [5] [µM]	EC50 (tumor cells [6]; [16]) [µM]	EC50 (tumor cells [6]; [17]) [µM]	EC50 (tumor cells [6]; [18]) [µM]	EC50 (tumor cells [6]; [19]) [µM]	IC50 (HeLa) [µM]	IC50 (H460) [µM]	further results
CCOc1ncccc1C(=O)c1oc2ccc(Cl)cc2c1N [Example 78]	> 1	> 1	0.01 to 0.1	0.01 to 0.1	< 0.01	< 0.01	< 0.01	0.01 to 0.1	< 0.01	< 0.01	> 1	0.01 to 0.1	0.01 to 0.1	< 0.01	0.1 to 1	0.01 to 0.1	0.01 to 0.1	–
C#CCOc1ccccc1C(=O)c1oc2ccc(Cl)cc2c1N [Example 8]	> 1	> 1	0.1 to 1	0.1 to 1	0.01 to 0.1	0.1 to 1	0.1 to 1	0.1 to 1	0.01 to 0.1	0.01 to 0.1	> 1	0.1 to 1	0.1 to 1	0.1 to 1	0.1 to 1	0.1 to 1	0.1 to 1	–
Nc1c(C(=O)c2cccnc2N2CCOCC2)oc2ccc(Cl)cc12 [Example 37, 3-Amino-5-chloro-2-(2-morpholino-3-pyridylcarbonyl)-benzofuran]	–	> 1	–	0.01 to 0.1	–	–	–	–	0.01 to 0.1	–	> 1	–	0.01 to 0.1	–	–	–	–	EC50 [1, 20]: > 1 µM; EC50 (tumor cells [2]; [21]): 0.01 to 0.1 µM; EC50 (tumor cells [2]; [22]): 0.01 to 0.1 µM; IC50 ([3]; Homo sapiens): 0.01 to 0.1 µM; IC50 (tumor cells [4]; [23]): 0.01 to 0.1 µM; IC50 (tumor cells [4]; [24]): 0.01 to 0.1 µM; IC50 (tumor cells [4]; [25]): < 0.01 µM; EC50 (tumor cells [6]; [26]): 0.1 to 1 µM; EC50 (tumor cells [6]; [27]): 0.01 to 0.1 µM; EC50 (tumor cells [6]; [28]): > 1 µM; IC50 (HeLa; Homo sapiens, 144 h): 0.01 to 0.1 µM; IC50 (H460; Homo sapiens, NCI-H460, 144 h): 0.01 to 0.1 µM
CCOc1ccccc1C(=O)c1oc2ccc(Cl)cc2c1N [Example 2, 3-Amino-5-chloro-2-(2-ethoxybenzoyl)-benzofuran]	–	> 1	–	0.01 to 0.1	–	–	–	–	0.01 to 0.1	–	> 1	–	0.01 to 0.1	–	–	–	–	EC50 [1, 20]: 0.01 to 0.1 µM; EC50 (tumor cells [2]; [21]): 0.01 to 0.1 µM; EC50 (tumor cells [2]; [22]): < 0.01 µM; IC50 ([3]; Homo sapiens): 0.01 to 0.1 µM; IC50 (tumor cells [4]; [23]): 0.01 to 0.1 µM; IC50 (tumor cells [4]; [24]): 0.01 to 0.1 µM; IC50 (tumor cells [4]; [25]): < 0.01 µM; EC50 (tumor cells [6]; [26]): 0.01 to 0.1 µM; EC50 (tumor cells [6]; [27]): < 0.01 µM; EC50 (tumor cells [6]; [28]): 0.1 to 1 µM; IC50 (HeLa; Homo sapiens, 144 h): 0.01 to 0.1 µM; IC50 (H460; Homo sapiens, NCI-H460, 144 h): 0.01 to 0.1 µM
CCOc1ccc(F)cc1C(=O)c1oc2ccc(OC)cc2c1NC(=O)COC [Example 58]	> 1	> 1	0.1 to 1	0.01 to 0.1	0.01 to 0.1	0.01 to 0.1	0.01 to 0.1	0.01 to 0.1	0.01 to 0.1	< 0.01	> 1	0.1 to 1	0.01 to 0.1	0.01 to 0.1	0.1 to 1	0.01 to 0.1	0.01 to 0.1	–
CCOc1ccc(F)cc1C(=O)c1cc2cc(O)ccc2o1 [Example 64]	0.1 to 1	> 1	0.01 to 0.1	0.01 to 0.1	< 0.01	0.01 to 0.1	0.01 to 0.1	0.01 to 0.1	< 0.01	< 0.01	> 1	0.01 to 0.1	0.01 to 0.1	< 0.01	> 1	0.01 to 0.1	0.01 to 0.1	–
Nc1c(C(=O)c2cccnc2N2CCCCC2)oc2ccc(Cl)cc12 [Example 82]	0.01 to 0.1	> 1	0.01 to 0.1	0.01 to 0.1	< 0.01	< 0.01	< 0.01	< 0.01	< 0.01	< 0.01	> 1	0.01 to 0.1	< 0.01	< 0.01	0.01 to 0.1	0.01 to 0.1	0.01 to 0.1	–
CCOc1ccc(F)cc1C(=O)c1oc2ccc(O)cc2c1N [Example 75]	< 0.01	> 1	< 0.01	< 0.01	< 0.01	< 0.01	< 0.01	0.01 to 0.1	< 0.01	< 0.01	> 1	< 0.01	< 0.01	< 0.01	0.01 to 0.1	0.01 to 0.1	0.01 to 0.1	–
COc1ccc2oc(C(=O)c3cc(F)ccc3N3CC=CCC3)cc2c1 [Example 98]	0.01 to 0.1	> 1	0.01 to 0.1	0.01 to 0.1	< 0.01	< 0.01	0.01 to 0.1	0.01 to 0.1	0.01 to 0.1	< 0.01	> 1	< 0.01	< 0.01	< 0.01	< 0.01	0.01 to 0.1	0.01 to 0.1	–
C#CCOc1ccc(OC)cc1C(=O)c1oc2ccc(Cl)cc2c1N [Example 13]	0.1 to 1	–	0.1 to 1	0.1 to 1	0.1 to 1	0.1 to 1	0.1 to 1	0.1 to 1	0.01 to 0.1	0.01 to 0.1	> 1	0.1 to 1	0.1 to 1	0.1 to 1	0.1 to 1	0.1 to 1	0.1 to 1	–
CCOc1ccc2oc(C(=O)c3cc(F)ccc3OCC)cc2c1 [Example 66]	0.1 to 1	> 1	0.01 to 0.1	< 0.01	0.01 to 0.1	< 0.01	< 0.01	< 0.01	< 0.01	–	> 1	0.1 to 1	0.01 to 0.1	0.01 to 0.1	0.1 to 1	< 0.01	< 0.01	–
Nc1c(C(=O)c2ccccc2OCC(F)(F)F)oc2ccc(Cl)cc12 [Example 61]	> 1	> 1	0.1 to 1	0.01 to 0.1	< 0.01	0.01 to 0.1	0.01 to 0.1	0.01 to 0.1	< 0.01	< 0.01	> 1	0.1 to 1	0.01 to 0.1	0.01 to 0.1	> 1	0.01 to 0.1	0.01 to 0.1	–
COCCOc1ccccc1C(=O)c1oc2ccc(Cl)cc2c1N [Example 6]	> 1	> 1	0.1 to 1	0.1 to 1	0.1 to 1	> 1	> 1	0.1 to 1	0.1 to 1	0.1 to 1	> 1	0.1 to 1	0.1 to 1	0.1 to 1	0.1 to 1	0.1 to 1	0.1 to 1	–
CCOc1ccc(F)cc1C(=O)c1oc2ccc(OC)cc2c1N [Example 48]	< 0.01	> 1	< 0.01	< 0.01	< 0.01	< 0.01	< 0.01	< 0.01	< 0.01	< 0.01	0.1 to 1	0.01 to 0.1	< 0.01	< 0.01	0.01 to 0.1	0.01 to 0.1	< 0.01	–
